Results taken from patent publication US20040092548A1, “OPHTHALMIC TREATMENT” (priority 1995, published 2004).
Where a name gives a salt, the structure may show the parent alone.

How the values were obtained:
[1] = tested on: white New Zealand rabbits; test: Mydriatic response (pupil dilation, RRmax) after ocular dosing of ephedrine hydrochloride; type: in vivo; settings: 5 μl of 5% solution (250 μg) as droplet stream compared with 5 μl 5% and 25 μl 1% instillates (250 μg each); rabbit
Description: Six white New Zealand rabbits were administered with the following dosage regimen:
I→25 μl of 1% aqueous ephedrine hydrochloride solution (250 μg) via pipette (instillate)
II→5 μl of 5% aqueous ephedrine hydrochloride solution (250 μg) via pipette (instillate)
III→5 μl of 5% aqueous ephedrine hydrochloride solution (250 μg) in a jet/stream of droplets of diameter in the range 200 to 400 μm.
Pupil diameter measurements were determined from photographs acquired using a Pentax ME super 35 mm camera fitted with a SMC Pentax 50 mm lens and a 2x converter. An aperture setting of 12, and a shutter speed of 1/15 was employed with a film speed of ISO 400 (Kodak Gold 400). The camera was held stationary on a tripod and positioned approximately 30-40 cm from the rabbits eye. Prior to each dosing period the animals were acclimatised to experimental conditions (constant light intensity, minimal distractions) for 20 min. The rabbits were placed in restraining boxes and settled before photographs and baseline pupil diameters were determined 5 min prior to dosing.
Pupillary diameters were determined from the developed colour prints (6×4) using an electronic micrometer (Digimatic Caliper, Mitutoyo Corp., Japan). […] The maximum response ratio (RRmax) for pupil dilation was then calculated from the photographs using the following relationship: […]

[2] = tested on: white New Zealand rabbits; test: Miotic response (pupil diameter) after ocular dosing of pilocarpine hydrochloride, randomised cross-over study; type: in vivo; settings: rabbit; for AUC (0-4 hours), area under the pupillary diameter vs. time curve / RR max: ± SD
Description: Ten white New Zealand rabbits were treated with the following dosage regimen in a randomised cross-over study:
30 μl of 1% aqueous pilocarpine hydrochloride solution (300 μg) was instilled via pipette into the conjunctival sac 5 μl of 1% aqueous pilocarpine hydrochloride solution (50 μg) was applied as a jet and/or stream of droplets (with a diameter in the range of 200 μm to 400 μm) to the surface of the cornea.
In order to determine pupil diameters, a metallic rule with a circular aperture of known diameter was orientated perpendicular to, and at an appropriate fixed distance from, a video camera fitted with a macro lens (Sony V8 Pro-CDD-V100E) throughout the study. During miotic measurements, the animals were positioned such that the left eye was parallel to the ruler and equidistant from the video camera. The video camera was actuated to project and amplify images of both the reference aperture and left eye onto the monitor screen. The diameters of both the reference aperture and pupil were then measured on the screen using a ruler placed on the projected image at an angle of approximately […]. The value of the pupil diameter was then calculated by multiplying the projected screen pupil diameter by the ratio of the actual reference diameter (8 mm) to the projected screen reference diameter (18 mm).
Pupil measurements were taken at approximately 60, 45, 30 and 15 minute intervals prior to administration of the treatments to provide a baseline value, and then at 15 minute intervals for the first hour after dosing. Thereafter, the pupil diameter was measured at 30 minute intervals for a minimum duration of 4 hours after dose administration.
For the purpose of statistical analysis of variants between treatments, the following parameters were determined: RR max=(pupil diameter at time t−pupil diameter at time 0)/pupil diameter at time 0; T max=the first time point at which the smallest pupillary diameter was observed; and AUC (0-4 hours)=the area under the pupillary diameter vs. time curve between 0 and 4 hours after treatment.
All significance tests were two-tailed and were performed at the 5% significance level. The statistical software SAS V607 and the PROC GLM procedure were used in the analysis.

[3] = Ocular distribution study of tritiated propranolol hydrochloride; type: in vivo, rabbit
Description: 40 μl of 0.5% aqueous tritiated propranolol hydrochloride solution (200 μg) was administered via pipette into the conjunctival sac of twelve New Zealand white rabbit eyes. Seperately, 5 μl of 4% aqueous tritiated propranolol hydrochloride solution (200 μg) was applied as a jet or stream of droplets (with a diameter in the range of 200 μm to 400 μm) to the surface (cornea and/or conjunctiva) of twelve different New Zealand white rabbit eyes
Following each treatment, four eyes were ennucleated after 15 minutes, four after 30 minutes and the remaining four after 60 minutes. In each case, the animals were humanely killed prior to the ocular ennucleation procedure via an overdose of sodium pentobarbitol injected into a marginal ear vein. Each eye was then irrigated by instilling 100 μl of normal saline into the conjunctival sac using an automatic pipette and immediately blotting away excess saline with paper tissue to remove any radioactivity in the tear film. Following ennucleation and removal of the adnexal tissue, the cornea was washed with a second 100 μl of normal saline. The aqueous humor was then quickly removed by paracentesis with a 1 ml syringe and 26G needle. To this was then added an equal volume of trichloroacetic acid (TCA) solution (10% w/v) to bring the final concentration to 5% w/v TCA. Both eyes were then dissected from the posterior pole to allow removal of the vitreous humor and the lens, whilst the iris-cilary body was transferred to a tared sample tube. The cornea was then removed using a 12 mm trephine, and the limbal cornea and conjunctiva (with underlying sclera) cut free into a strip approximately 5 mm wide using a scalpel and scissors. Each sample was then weighed in a tared sample tube and at least 5 volumes of TCA (6% w/v) added. All tissue samples were subjected to sonication for 5 minutes, then centrifuged at 10 000 g.min. to yield a supernatent. Each supernatent was then extracted 3 times with 3 volumes of ether and, after evaporation of residual solvent, the aqueous residue was sampled and added to 5 ml of FluoronSafe XE “Scintron” scintillation fluid (BDH Chemicals, UK). Radioactivity was then determined by counting in a Packard 1600DR beta-scintillation counter. Data gathered as counts per minute was then converted into disintegrations per minute (dpm), using external standardisation, and expressed as dpm […] after adjusting for the total radioactivity in each dose. Due to the small number of samples per time point per treatment, statistical analysis was not considered appropriate for this study.
The results of this study are summarised for the different ocular tissues in tables 1 to 4 below, where the values shown represent dpm (disintegrations per minute) per mg of tissue.

[4] = cited from earlier work
[5] = 1% 5 μl jet and/or stream of droplets (50 μg) to cornea
[6] = 1% 30 μl large eyedrop (300 μg) instilled into conjunctival sac
[7] = 0.5% 40 μl large eyedrop (200 μg), 15 mins
[8] = 0.5% 40 μl large eyedrop (200 μg), 30 mins
[9] = 0.5% 40 μl large eyedrop (200 μg), 60 mins
[10] = 4.0% 5 μl jet and/or stream of droplets (200 μg), 15 mins
[11] = 4.0% 5 μl jet and/or stream of droplets (200 μg), 30 mins
[12] = 4.0% 5 μl jet and/or stream of droplets (200 μg), 60 mins
[13] = 5 μl eye drop loaded with 26.1 μg

## CN[C@@H](C)[C@H](O)c1ccccc1 [Ephedrine, ephedrine hydrochloride]
[1]
  Mydriatic response (RRmax vs time, FIG. 1): more pronounced and maintained over a longer duration compared to both instillates

## CC[C@@H]1C(=O)OC[C@@H]1Cc1cncn1C [Pilocarpine, pilocarpine hydrochloride]
[2]; [5]
  AUC (0-4 hours), area under the pupillary diameter vs. time curve: 3827 ± 312 mmMin.
  RR max: 12.3 ± 5.2 %
[2]; [6]
  AUC (0-4 hours), area under the pupillary diameter vs. time curve: 3871 ± 340 mmMin.
  RR max: 15.2 ± 4.0 %
[2]; both dose forms (30 μl eyedrop 300 μg; 5 μl jet 50 μg), after 15 minutes
  Pupil diameter after administration: reduction in pupil diameter was evident
[2]; both dose forms
  Time after treatment at which the miotic effect started to disappear: 60 to 90 min
  Time after which pupil measurements had fully recovered to predose levels: 120 min

## CC(C)NCC(O)COc1cccc2ccccc12 (centres unmarked) [Propranolol, propranolol hydrochloride]
[3]; [7]
  Radioactivity in aqueous humor: 1310 dpm per mg of tissue
  Radioactivity in conjunctiva/sclera: 2569 dpm per mg of tissue
  Radioactivity in cornea: 5579 dpm per mg of tissue
  Radioactivity in iris-cilary body: 942 dpm per mg of tissue
[3]; [8]
  Radioactivity in aqueous humor: 960 dpm per mg of tissue
  Radioactivity in conjunctiva/sclera: 2838 dpm per mg of tissue
  Radioactivity in cornea: 3467 dpm per mg of tissue
  Radioactivity in iris-cilary body: 1033 dpm per mg of tissue
[3]; [9]
  Radioactivity in aqueous humor: 705 dpm per mg of tissue
  Radioactivity in conjunctiva/sclera: 1380 dpm per mg of tissue
  Radioactivity in cornea: 2945 dpm per mg of tissue
  Radioactivity in iris-cilary body: 799 dpm per mg of tissue
[3]; [10]
  Radioactivity in aqueous humor: 1845 dpm per mg of tissue
  Radioactivity in conjunctiva/sclera: 5286 dpm per mg of tissue
  Radioactivity in cornea: 5241 dpm per mg of tissue
  Radioactivity in iris-cilary body: 2256 dpm per mg of tissue
[3]; [11]
  Radioactivity in aqueous humor: 1176 dpm per mg of tissue
  Radioactivity in conjunctiva/sclera: 2259 dpm per mg of tissue
  Radioactivity in cornea: 3766 dpm per mg of tissue
  Radioactivity in iris-cilary body: 1482 dpm per mg of tissue
[3]; [12]
  Radioactivity in aqueous humor: 607 dpm per mg of tissue
  Radioactivity in conjunctiva/sclera: 1673 dpm per mg of tissue
  Radioactivity in cornea: 1861 dpm per mg of tissue
  Radioactivity in iris-cilary body: 586 dpm per mg of tissue
[3]; 15 minute time point, 200 μg each
  Level reaching the iris-ciliary body from jet and/or stream of droplets relative to eyedrop: more than double
[3]; all ocular tissues, all time points, both treatments
  Radioactivity in ocular tissues: Significant radioactivity was detected

## CC[C@@H]1C(=O)OC[C@@H]1Cc1cncn1C [pilocarpine nitrate]
[4]; [13]
  Drug available for potential systemic absorption: 25.7 µg
  Fraction of drug absorbed into the eye: 0.41 µg
[4]; 25 μl drop loaded with 67.8 μg
  Drug left to be absorbed systemically: 67.4 µg
  Drug penetrated the eye: 0.36 µg
